# Measurements published in ChEMBL document CHEMBL3785074, “Molecular modeling and snake venom phospholipase A2 inhibition by phenolic compounds: Structure-activity relationship” (Eur J Med Chem, 2016).
# The source made the active and inactive calls. The calls are words filed in the database; no cut-off is given here.
# Experiments:
# [1] = Protective activity against Daboia russellii venom-induced mortality in Swiss albino mouse at 100 mmol, iv administered immediately after venom injection measured after 24 hrs relative to untreated control; format: functional, Daboia russelii
# [2] = (§1) Protective activity against Daboia russellii venom-induced mortality in Swiss albino mouse at 100 mmol, iv by measuring venom LD50 administered immediately after venom injection measured after 24 hrs (reference value: 2.28ug); format: functional, Daboia russelii
# [3] = system: Naja kaouthia
# Description: Protective activity against Naja kaouthia venom-induced mortality in Swiss albino mouse at 100 mmol, iv by measuring venom LD50 administered immediately after venom injection measured after 24 hrs (Rvb = 2.82 ug)
# [4] = system: Daboia russelii; assay: (§2) Protective activity against Daboia russellii venom-induced hemorrhage in Swiss albino mouse at 100 mmol, iv assessed as hemorhagic lesion by measuring […] administered immediately after venom injection measured after 24 hrs (Rvb =5 ug); format: functional
# [5] = Protective activity against Daboia russellii venom-induced hemorrhage in intradermally dosed Swiss albino mouse at 100 mmol assessed as hemorhagic lesion by measuring minimal […] dose preincubated with venom for 1 hr followed by administration to mouse measured after 24 hrs (reference value: 5 ug); format: functional, Daboia russelii
# [6] = Protective activity against Daboia russellii venom-induced mortality by measuring venom LD50 in Swiss albino mouse at 100 mmol, iv preincubated with venom for 1 hr followed by administration to mouse measured after 24 hrs (reference value: 2.28 ug); format: functional, Daboia russelii
# [7] = Protective activity against Daboia russellii venom-induced mortality in Swiss albino mouse at 100 mmol, iv preincubated with venom for 1 hr followed by administration to mouse measured after 24 hrs relative to untreated control; format: functional, Daboia russelii
# [8] = Protective activity against Daboia russellii venom-induced hemorrhage in intradermally dosed Swiss albino mouse at 100 mmol assessed as hemorhagic lesion preincubated with venom for 1 hr followed by administration to mouse measured after 24 hrs relative to untreated control; format: functional, Daboia russelii
# [9] = Protective activity against Naja kaouthia venom-induced mortality in Swiss albino mouse at 100 mmol, iv preincubated with venom for 1 hr followed by administration to mouse measured after 24 hrs relative to untreated control; format: functional
# [10] = Protective activity against Naja kaouthia venom-induced mortality in Swiss albino mouse at 100 mmol, iv by measuring venom LD50 preincubated with venom for 1 hr followed by administration to mouse measured after 24 hrs (reference value: 2.82 ug); format: functional
# [11] = as §2; format: functional, Daboia russelii
# [12] = Lipophilicity, log P of compound; format: physicochemical; conditions: octanol/water; read-out: logP
# [13] = Protective activity against Daboia russellii venom-induced hemorrhage in Swiss albino mouse at 100 mmol, iv assessed as hemorhagic lesion administered immediately after venom injection measured after 24 hrs relative to untreated control; format: functional, Daboia russelii
# [14] = Protective activity against Naja kaouthia venom-induced mortality in Swiss albino mouse at 100 mmol, iv by measuring venom LD50 administered immediately after venom injection measured after 24 hrs (reference value: 2.82 ug); format: functional
# [15] = Protective activity against Naja kaouthia venom-induced mortality in Swiss albino mouse at 100 mmol, iv administered immediately after venom injection measured after 24 hrs relative to untreated control; format: functional
# [16] = system: Daboia russelii
# [17] = system: Naja kaouthia; remark: listed apart in the source
# [18] = system: Daboia russelii; assay: as §1; format: functional
# [19] = system: Daboia russelii; assay: Protective activity against Daboia russellii venom-induced mortality in iv dosed Swiss albino mouse administered immediately after venom injection relative to untreated control; format: functional, organism-based
# [20] = Protective activity against Daboia russellii venom-induced mortality in iv dosed Swiss albino mouse administered 30 mins after venom injection relative to untreated control; format: functional, Daboia russelii
Structure (SMILES),fold change (FC) [1],LD50 [2],LD50 [3],MHC [4],MHC [5],LD50 [6],fold change (FC) [7],fold change (FC) [8],fold change (FC) [9],LD50 [10],MHC [11],logP [12],fold change (FC) [13],LD50 [14],fold change (FC) [15],LD50 [16],LD50 [17],LD50 [18],Activity [19],Activity [20]
COc1ccc(/C=N/O)c(OC)c1,1.25,50 µg,inactive,inactive,5 µg,6 µg,2.6,1,1,3 µg,–,–,–,–,–,–,–,–,–,–
COc1ccc(O)c(C=O)c1,2.5,100 µg,–,–,20 µg,11 µg,4.9,4,2.1,6 µg,10 µg,1.93,2,8 µg,1.6,–,–,–,–,–
CCCOc1ccc(C=O)c(O)c1,–,–,inactive,inactive,5 µg,–,–,1,–,–,–,–,–,–,–,inactive,inactive,inactive,–,–
COc1ccccc1C=O [2-METHOXYBENZALDEHYDE],2.5,100 µg,inactive,–,10 µg,18 µg,8,2,2.1,6 µg,5 µg,1.15,1,–,–,–,–,–,–,–
COc1ccccc1 [ANISOLE],–,–,inactive,–,10 µg,–,–,2,–,–,5 µg,1.44,1,–,–,inactive,inactive,inactive,–,–
COc1ccc(C=O)cc1O [ISOVANILLIN],–,–,inactive,–,10 µg,–,–,2,–,–,10 µg,–,2,–,–,inactive,inactive,inactive,–,–
COc1cccc(C=O)c1,2.5,100 µg,inactive,–,15 µg,25 µg,11.2,3,3.2,9 µg,5 µg,1.15,1,–,–,–,–,–,–,–
Oc1ccccc1 [PHENOL],–,–,inactive,–,10 µg,–,–,2,–,–,5 µg,1.76,1,–,–,inactive,inactive,inactive,–,–
O=Cc1cccc(O)c1 [3-HYDROXYBENZALDEHYDE],1.25,–,–,–,30 µg,–,2.6,6,1,–,15 µg,–,3,–,–,–,–,–,–,–
COc1ccc(C=O)cc1,–,–,inactive,–,15 µg,–,–,3,–,–,5 µg,1.19,1,–,–,inactive,inactive,inactive,–,–
COc1ccc(C=O)c(OC)c1,2.5,100 µg,–,–,25 µg,22 µg,9.8,5,3.2,9 µg,10 µg,0.97,2,8 µg,1.6,–,–,–,Active,40%
CCOc1cc(C=O)ccc1O [ETHYL VANILLIN],2.5,100 µg,–,–,15 µg,11 µg,4.9,3,1,3 µg,10 µg,1.81,2,10 µg,2,–,–,–,–,–
"COc1ccccc1OC [1,2-DIMETHOXYBENZENE]",–,–,inactive,–,10 µg,–,–,2,–,–,5 µg,1.44,1,–,–,inactive,inactive,inactive,–,–
COc1cc(C=O)ccc1O [VANILLIN],3.75,150 µg,–,–,20 µg,22 µg,9.8,4,3.2,9 µg,5 µg,1.87,1,10 µg,2,–,–,–,–,–
Oc1ccc(O)cc1 [HYDROQUINONE],–,–,inactive,–,20 µg,–,–,4,–,–,10 µg,1.48,2,–,–,inactive,inactive,inactive,–,–
O=Cc1cccc(O)c1O,–,–,inactive,–,40 µg,5 µg,2.1,8,1,3 µg,10 µg,1.19,2,–,–,–,–,inactive,–,–
Oc1ccccc1O [CATECHOL],–,–,inactive,–,25 µg,–,–,5,–,–,15 µg,1.48,3,–,–,inactive,inactive,inactive,–,–
O=Cc1ccc(O)cc1 [4-HYDROXYBENZALDEHYDE],1.25,50 µg,inactive,–,15 µg,6 µg,2.6,3,1,3 µg,10 µg,1.15,2,–,–,–,–,–,–,–
"COc1ccc(OC)cc1 [1,4-DIMETHOXYBENZENE]",–,–,inactive,–,10 µg,–,–,2,–,–,5 µg,1.47,1,–,–,inactive,inactive,inactive,–,–
"COc1cccc(OC)c1 [1,3-DIMETHOXYBENZENE]",–,–,inactive,–,10 µg,–,–,2,–,–,5 µg,1.44,1,–,–,inactive,inactive,inactive,–,–
CCCCCCCOc1ccc(C=O)c(O)c1,–,–,inactive,inactive,5 µg,6 µg,2.6,1,1,3 µg,–,–,–,–,–,–,–,inactive,–,–
O=Cc1cc(O)ccc1O,1.25,50 µg,inactive,–,35 µg,5 µg,2.1,7,1,3 µg,15 µg,1.53,3,–,–,–,–,–,–,–
CCOc1ccc(C=O)c(O)c1,–,–,inactive,inactive,5 µg,–,–,1,–,–,–,–,–,–,–,inactive,inactive,inactive,–,–
Oc1cccc(O)c1 [RESORCINOL],–,–,inactive,–,10 µg,–,–,2,–,–,10 µg,1.48,2,–,–,inactive,inactive,inactive,–,–
O=Cc1ccc(O)c(O)c1 [PROTOCATECHUALDEHYDE],1.25,50 µg,inactive,–,60 µg,6 µg,2.6,12,1,3 µg,20 µg,2,4,–,–,–,–,–,–,–
